From PMC8973347, “Discovery of novel sulphonamide hybrids that inhibit LSD1 against bladder cancer cells” (Journal of Enzyme Inhibition and Medicinal Chemistry, 2022)
“Also recorded” adds a separate entry of the source.

What was measured:
[1] = target: T1, MAO-A (Homo sapiens, UniProt P21397); assay: MAO-A/B biochemical kit, MAO-A
T1 construct: purchased Promega
T1 sequence (P21397 1-527): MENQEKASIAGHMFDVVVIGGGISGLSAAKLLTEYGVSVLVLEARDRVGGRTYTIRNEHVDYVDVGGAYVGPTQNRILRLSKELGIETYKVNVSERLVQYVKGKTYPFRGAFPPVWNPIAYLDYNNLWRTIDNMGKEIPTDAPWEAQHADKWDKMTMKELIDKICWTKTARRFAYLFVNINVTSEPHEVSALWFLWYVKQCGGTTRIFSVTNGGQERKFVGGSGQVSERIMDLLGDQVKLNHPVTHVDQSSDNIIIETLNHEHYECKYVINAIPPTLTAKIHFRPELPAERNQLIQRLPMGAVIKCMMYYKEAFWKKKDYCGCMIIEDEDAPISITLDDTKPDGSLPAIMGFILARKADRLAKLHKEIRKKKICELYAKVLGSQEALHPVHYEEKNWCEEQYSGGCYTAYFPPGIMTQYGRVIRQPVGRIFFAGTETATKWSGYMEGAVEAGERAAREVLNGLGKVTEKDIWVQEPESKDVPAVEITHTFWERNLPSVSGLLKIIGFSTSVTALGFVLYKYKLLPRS
Excerpt: (§1) LSD1 inhibitor screening assay kit was purchased to evaluate for the enzyme inhibition activity of all synthetic compounds (Cayman Chemical, Fort Annapolis, MI). The MAO-A/B biochemical kit was purchased to explore the inhibitory activity against MAO-A and MAO-B (Promega, Madison, WI). […] The signal of each well was read by a GloMax Explorer (Beijing Yuanpinghao Biotechnology Co., Ltd, Beijing, China).

[2] = system: HTB3&shControl cells; assay: Antiproliferative activity, control cells HTB3&shControl; settings: read-out: IC50 against HTB3&shControl cells
Protocol: (§2) Cells were cultured at a 96-well plate for 24 h (Cayman Chemical, Fort Annapolis, MI) and different compounds were added. […] The solution was removed and dimethyl sulphoxide was added. Thirty minutes later, absorption values were read by a Fully Automated Microplate ELISA Analyser (DeTie, NanJing, China).

[3] = system: HT1376&shLSD1 cells; assay: Antiproliferative activity, LSD1 knock-down cells HT1376&shLSD1; settings: read-out: IC50 against HT1376&shLSD1 cells
Protocol: as §2

[4] = system: HTB5 cells (bladder cancer cell line); assay: MTT cell viability assay, HTB5; settings: read-out: IC50 against HTB5 cells; 48 h
Protocol: as §2

[5] = system: HTB1 cells (bladder cancer cell line); assay: MTT cell viability assay, HTB1; settings: read-out: IC50 against HTB1 cells; 48 h
Protocol: as §2

[6] = target: T2, LSD1 (Homo sapiens, UniProt O60341); assay: LSD1 inhibitor screening assay kit
Excerpt: as §1

[7] = system: SGC-7901 (human gastric cell line); assay: MTT cell viability assay, SGC-7901; settings: read-out: IC50 against SGC-7901 cells, 48 h
Protocol: as §2

[8] = system: HCT-15 (human colon cell line); assay: MTT cell viability assay, HCT-15; settings: read-out: IC50 against HCT-15 cells, 48 h
Protocol: as §2

[9] = system: LX-2 (normal human hepatic stellate cell line); assay: MTT cell viability assay, LX-2; settings: read-out: IC50 against LX-2 normal cell line, 48 h
Protocol: as §2

[10] = system: HTB3 (human bladder cell line); assay: MTT cell viability assay, HTB3; settings: read-out: IC50 against HTB3 cells, 48 h
Protocol: as §2

[11] = target: T2, LSD1; assay: LSD1 dilution assay; format: biochemical; parameters: purchased Cayman Chemical; settings: diluted 80 times; Figure 3(C)
Protocol: LSD1 recombinant (Cayman Chemical, […], MI) was incubated with the targeted compound or dimethyl sulphoxide for 60 min. Then, samples were diluted 80 times using a HRP-assay solution containing substrate and coupling reagents. Finally, LSD1 inhibitory activity before and after dilution was examined.

[12] = target: T3, MAO-B (Homo sapiens, UniProt P27338); assay: MAO-A/B biochemical kit, MAO-B
T3 construct: purchased Promega
T3 sequence (P27338 1-520): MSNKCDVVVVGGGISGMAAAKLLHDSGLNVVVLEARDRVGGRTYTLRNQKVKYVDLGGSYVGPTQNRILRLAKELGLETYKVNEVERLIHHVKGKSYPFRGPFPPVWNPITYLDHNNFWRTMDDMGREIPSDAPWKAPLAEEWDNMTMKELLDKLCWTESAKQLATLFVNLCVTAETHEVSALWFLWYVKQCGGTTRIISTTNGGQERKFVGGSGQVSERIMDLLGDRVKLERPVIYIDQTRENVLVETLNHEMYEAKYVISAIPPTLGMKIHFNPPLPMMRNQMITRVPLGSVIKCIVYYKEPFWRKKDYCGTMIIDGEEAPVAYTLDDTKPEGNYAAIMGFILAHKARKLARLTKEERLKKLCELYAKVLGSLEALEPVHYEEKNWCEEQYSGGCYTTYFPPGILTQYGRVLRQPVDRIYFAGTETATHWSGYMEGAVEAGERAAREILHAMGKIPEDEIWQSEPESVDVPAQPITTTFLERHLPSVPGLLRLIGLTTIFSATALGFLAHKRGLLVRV
Excerpt: as §1

[13] = system: HIEC (normal human intestinal epithelial cell line); assay: MTT cell viability assay, HIEC; settings: read-out: IC50 against HIEC normal cell line, 48 h
Protocol: as §2

[14] = system: HTB3&shLSD1 cells; assay: Antiproliferative activity, LSD1 knock-down cells HTB3&shLSD1; settings: read-out: IC50 against HTB3&shLSD1 cells
Protocol: as §2

[15] = system: HT1376 cells (bladder cancer cell line); assay: MTT cell viability assay, HT1376; settings: read-out: IC50 against HT1376 cells; 48 h
Protocol: as §2

[16] = system: Jurkat (human leukaemia cell line); assay: MTT cell viability assay, Jurkat; settings: read-out: IC50 against Jurkat cells, 48 h
Protocol: as §2

[17] = system: HPAEpiC (normal human alveolar epithelial cell line); assay: MTT cell viability assay, HPAEpiC; settings: read-out: IC50 against HPAEpiC normal cell line, 48 h
Protocol: as §2

[18] = system: HT1376&shControl cells; assay: Antiproliferative activity, control cells HT1376&shControl; settings: read-out: IC50 against HT1376&shControl cells
Protocol: as §2

[19] = system: H1299 (human lung cell line); assay: MTT cell viability assay, H1299; settings: read-out: IC50 against H1299 cells, 48 h
Protocol: as §2

[20] = system: H3K4me1, H3K4me2, and H3K9me2 in HT1376 cells; assay: Western blotting of LSD1 substrates; format: cell-based; settings: Figure 4(D)
Protocol: Cells were seeded in four-well plates (Shanghai Yuanye Biotechnology Co., Ltd, Shanghai, China) and exposed to different compounds at different concentrations. Cells were harvested to obtain protein solution by the RIPA Lysis Buffer (DeTie, NanJing, China). The proteins were separated on sodium dodecyl sulphate–polyacrylamide gel electrophoresis (SDS-PAGE) gels and then transferred to poly(vinylidene fluoride (PVDF) membranes (Shanghai Yuanye Biotechnology Co., Ltd, Shanghai, China). It incubated with the primary antibodies and corresponding HRP conjugated secondary antibodies (Servicebio, Wuhan, China). The […] kit (Servicebio, Wuhan, China) was used to visualise the bands.

[21] = system: Bel7402 (human liver cell line); assay: MTT cell viability assay, Bel7402; settings: read-out: IC50 against Bel7402 cells, 48 h
Protocol: as §2

For `COc1cc(N(CCCCSC(=S)N2CCN(CCO)CC2)S(=O)(=O)c2cccc3cccnc23)cc(OC)c1OC` [Compound L8, 4-(N-(3,4,5-trimethoxyphenyl)quinoline-8-sulfonamido)butyl-4–(2-hydroxyethyl)piperazine-1-carbodithioate], the IC50 [1] was > 120 µM, the “inhibitory rate MAO-A” value ([1]; at 100 nM) was 10.33% and the IC50 [2] was 230 nM. For the same molecule, the IC50 [3] was 4360 nM, the IC50 [4] was 1870 nM and the IC50 [5] was 930 nM. For the same molecule, the “time dependence of LSD1 inhibition” value ([6]; Figure 3(B)) was “time-dependent”, the “inhibition against LSD1” value ([6]; at 25 nM) was “about 30.33%” and the “inhibition against LSD1” value ([6]; at 50 nM) was ~46.00%. For the same molecule, the “inhibition against LSD1” value ([6]; at 100 nM) was ~68.00%, the IC50 ([6]; read-out: IC50 (μM) LSD1) was 0.06 ± 0.01 µM and the IC50 [7] was 2670 nM. For the same molecule, the IC50 [8] was 2170 nM, the IC50 [9] was > 16000 nM and the IC50 [10] was 180 nM. For the same molecule, the “reversibility of LSD1 inhibition” value [11] was “reversible”, the IC50 [12] was > 120 µM and the “inhibitory rate MAO-B” value ([12]; at 100 nM) was 9.33%. The IC50 [13] was > 16000 nM, the IC50 [14] was 3070 nM and the IC50 [15] was 90 nM. For the same molecule, the IC50 [16] was 290 nM, the IC50 [17] was > 16000 nM and the IC50 [18] was 110 nM. The IC50 [19] was 310 nM, the “expression levels of H3K4me1, H3K4me2, and H3K9me2” value [20] was “increasing; also recorded: increased” and the IC50 [21] was 960 nM.
